These results are taken from US20230286923A1 (INIPHARM, INC., priority 2020, published 2023).

The target in the assay is HSD17B13 enzyme (Homo sapiens (Human), UniProt Q7Z5P4). The assay is described as follows: Estrone detection assay (LC/MS, conversion of estradiol to estrone) for HSD17B13 activity. Type of assay: biochemical. The note with it: substrate 4 µM estradiol, 6 mM NAD+, 30 nM enzyme. As to the method:
The liquid chromatography/mass spectrometry (LC/MS) estrone detection assay monitors the conversion of estradiol to estrone by HSD17B13. This assay was undertaken in a 96wp format (Eppendorf deep well Plate 96/500) in an 80 µl reaction volume containing: 4 µM of Estradiol (E2; Cayman; #10006315), 6 mM NAD^+ (Sigma; #N0623) and 30 nM HSD17B13 enzyme (in-house; E. coli expressed His-tagged, purified, soluble protein) in a reaction containing 1 M potassium phosphate buffer pH 7.4, with 0.5% vehicle (DMSO). Reactions were incubated for 2 hours at 26.5° C., and estradiol (E2) conversion to estrone (E1) was quantitated by LC-MS/MS based analyte detection for both E2 and E1 using LCMS grade reagents.
Reactions were terminated by the addition of two volumes of acetonitrile (MeCN; LCMS grade; CAS# 75/05/8) containing deuterated (D4)-E1 used as internal standard (Clear Synth; #CS-T-54273; 500 ng/mL final concentration). Samples were applied to pre-prepared Bond Elut-C18 extraction cartridges (3 mL; Agilent; #12102028), washed and eluted in MeCN. Eluates were dried under nitrogen and re-suspended in 60% methanol (LCMS grade methanol; CAS# 67/56/1) before submission for analysis. Aqueous linearity for E2 and E1 were included for quantification.
Analysis of samples was undertaken on a XBridge BEH C18 column (Waters; #186003033) using 0.1% Diethyl Amine in MeCN (mobile phase A; DEA CAS# 109-89-7) and 0.1% Diethyl Amine in milli-Q water (mobile phase B) in a 3 min gradient allowing 25%B. Analytes were detected in negative mode using MRM analysis, with E2 having a RT of 1.85 min and E1 having a RT of 2 min. Activity of the enzyme, in the absence of NAD^+, was used to evaluate specificity of conversion. Enzyme activity in the presence of test samples was expressed as a percentage of the uninhibited enzyme activity, and plotted versus inhibitor concentration. Non-linear regression was performed using a four-parameter logistic model and GraphPad Prism software (GraphPad Software, La Jolla, CA). All assessments were undertaken in duplicate evaluations and pooled during extraction process and subsequently injected as duplicates for LC-MS/MS analysis.

Chain of HSD17B13 enzyme (Q7Z5P4 20-300): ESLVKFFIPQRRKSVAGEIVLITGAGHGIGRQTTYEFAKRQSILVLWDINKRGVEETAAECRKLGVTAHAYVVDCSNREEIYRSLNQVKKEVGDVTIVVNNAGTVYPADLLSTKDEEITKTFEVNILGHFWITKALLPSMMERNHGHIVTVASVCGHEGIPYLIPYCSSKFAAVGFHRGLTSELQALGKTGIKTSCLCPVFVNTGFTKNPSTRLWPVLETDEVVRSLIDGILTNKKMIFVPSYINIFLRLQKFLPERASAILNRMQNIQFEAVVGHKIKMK

For the molecule `N#Cc1cc(C(=O)Nc2cccc3ncn(Cc4cccc(F)c4)c(=O)c23)cc(Cl)c1O` [Example 49, 3-chloro-5-cyano-N-(3-(3-fluorobenzyl)-4-oxo-3,4-dihydroquinazolin-5-yl)-4-hydroxybenzamide], the IC50 lay within 100 to 1000 nM.
`N#Cc1cc(C(=O)Nc2cccc3ncn(Cc4cccc(OC(F)(F)F)c4)c(=O)c23)cc(Cl)c1O` [Example 48, 3-chloro-5-cyano-4-hydroxy-N-(4-oxo-3-(3-(trifluoromethoxy)benzyl)-3,4-dihydroquinazolin-5-yl)benzamide] showed a half-maximal inhibitory concentration (IC50) of 100 to 1000 nM.
Next, `N#Cc1cc(C(=O)Nc2cccc3ncn(Cc4ccccc4F)c(=O)c23)cc(Cl)c1O` [Example 37, 3-chloro-5-cyano-N-(3-(2-fluorobenzyl)-4-oxo-3,4-dihydroquinazolin-5-yl)-4-hydroxybenzamide]: 100 to 1000 nM; `N#Cc1cc(C(=O)Nc2cccc3ncn(Cc4ccccc4C(F)(F)F)c(=O)c23)cc(F)c1O` [Example 52, 3-cyano-5-fluoro-4-hydroxy-N-(4-oxo-3-(2-(trifluoromethyl)benzyl)-3,4-dihydroquinazolin-5-yl)benzamide]: at most 100 nM; `C[C@@H](c1cccc(F)c1)n1cnc2cccc(NC(=O)c3cc(F)c(O)c(C#N)c3)c2c1=O` [Example 47, (S)-3-cyano-5-fluoro-N-(3-(1-(3-fluorophenyl)ethyl)-4-oxo-3,4-dihydroquinazolin-5-yl)-4-hydroxybenzamide]: at most 100 nM.
The molecule `O=C(Nc1cccc2ncn(Cc3cocn3)c(=O)c12)c1cc(Cl)c(O)c(C(F)(F)F)c1` [Example 42] had an IC50 of 1000 to 10000 nM.
With `O=C(Nc1cccc2ncn(Cc3ccccc3OC(F)(F)F)c(=O)c12)c1cc(Cl)c(O)c(C(F)(F)F)n1` [Example 50, 4-chloro-5-hydroxy-N-(4-oxo-3-(2-(trifluoromethoxy)benzyl)-3,4-dihydroquinazolin-5-yl)-6-(trifluoromethyl)picolinamide] the figure was 100 to 1000 nM; with `N#Cc1cc(C(=O)Nc2cccc3ncn(Cc4ccc(F)cc4)c(=O)c23)cc(F)c1O` [Example 44, 3-cyano-5-fluoro-N-(3-(4-fluorobenzyl)-4-oxo-3,4-dihydroquinazolin-5-yl)-4-hydroxybenzamide], at most 100 nM.
Molecule `O=C(Nc1cccc2ncn(Cc3ccc(F)cc3)c(=O)c12)c1cc(Cl)c(O)c(C(F)(F)F)c1` [Example 35, 3-chloro-N-(3-(4-fluorobenzyl)-4-oxo-3,4-dihydroquinazolin-5-yl)-4-hydroxy-5-(trifluoromethyl)benzamide] gave an IC50 of 100 to 1000 nM.
Regarding `N#Cc1cc(C(=O)Nc2cccc3ncn(Cc4ccc(C(F)(F)F)cc4)c(=O)c23)cc(F)c1O` [Example 59, 3-cyano-5-fluoro-4-hydroxy-N-(4-oxo-3-(4-(trifluoromethyl)benzyl)-3,4-dihydroquinazolin-5-yl)benzamide], the IC50 was at most 100 nM.
Consider `C[C@@H](c1cccc(F)c1)n1cnc2cccc(NC(=O)c3cc(Cl)c(O)c(C(F)(F)F)n3)c2c1=O` [Example 43, (S)-4-chloro-N-(3-(1-(3-fluorophenyl)ethyl)-4-oxo-3,4-dihydroquinazolin-5-yl)-5-hydroxy-6-(trifluoromethyl)picolinamide], for which the IC50 was in the range of 100 to 1000 nM.
Next, `N#Cc1cc(C(=O)Nc2cccc3ncn(Cc4ccc(OC(F)(F)F)cc4)c(=O)c23)cc(F)c1O` [Example 53, 3-cyano-5-fluoro-4-hydroxy-N-(4-oxo-3-(4-(trifluoromethoxy)benzyl)-3,4-dihydroquinazolin-5-yl)benzamide]: 100 to 1000 nM; `N#Cc1ccccc1Cn1cnc2cccc(NC(=O)c3cc(F)c(O)c(C#N)c3)c2c1=O` [Example 60, 3-cyano-N-{3-[(2-cyanophenyl)methyl]-4-oxo-3,4-dihydroquinazolin-5-yl}-5-fluoro-4-hydroxybenzamide]: at most 100 nM.

Usually IC50 stands for the concentration that inhibits the measured activity by half. High values mean weaker potency in that assay, low ones greater potency in that assay.
